In patent US4282363A, “1-Nitro-2-(2-alkynylamino)-2-[(2-pyridylmethylthio)-ethylamino]ethylene derivatives” (Bristol-Myers Company, priority 1980, dated 1981):
Where two headings read alike, the source gives them in different places. Values belong to the compound of their own block, whether it stands above or below them.

Experiments:
histamine H2 -receptor = target: T1, histamine H2 -receptor (Cavia porcellus, UniProt P47747); test: Histamine H2-receptor antagonism, isolated guinea pig right atria assay (displacement of histamine concentration-response curve of atrial rate); design: species or system guinea pig (male Hartley); conditions: for Histamine ED50 With 95% Confidence Limits (after test compound): histamine ED50 in presence of test compound 3 × 10^-5 M, 30 minute incubation; for Concentration-Response Curve Displacement Factor: test compound 3 × 10^-5 M, displacement of histamine curve to the right
T1 construct: The spontaneously beating right atrium was dissected free from other tissues; from tissue; host or cells: isolated, spontaneously beating right atrium of male Hartley guinea pigs
Procedure: Subsequent investigations by Hughes and Coret, Proc. Soc. […] Black et al., Agents and Actions, 3, 133 (1973) and Brimblecombe et al., Fed. […] The present comparative studies were carried out using a modification of the procedure reported by Reinhardt et al., Agents and Actions, 4, 217 (1974).
Male Hartley strain guinea pigs (350-450 gm.) were sacrificed by a blow on the head. The heart was excised and placed in a Petri dish of oxygenated (95% O2, 5% CO2) modified Krebs solution (g./liter: NaCl 6.6, KCl 0.35, MgSO4.7H2 O 0.295, KH2 PO4 0.162, CaCl2 0.238, NaHCO3 2.1 and dextrose 2.09). The spontaneously beating right atrium was dissected free from other tissues and a silk thread (4-0) attached to each end. The atrium was suspended in a 20 ml. muscle chamber containing oxygenated modified Krebs solution maintained at 32° C. Atrial contractions were recorded isometrically be means of a Grass FT 0.03 force displacement transducer and recordings of contractile force and rate were made with Beckman RP Dynograph.
A resting tension of 1 g. was applied to the atrium and it was allowed to equilibrate for 1 hour.
Concentration-response curve displacement factors were calculated as follows: [formula] […] [formula]

gastric secretion [1] = conditions: animals; cited from earlier work
gastric secretion [2] = conditions: man, cited from earlier work
peptic ulcer disease = conditions: cited from earlier work
histamine H2 -receptors = conditions: isolated right atria, cited from earlier work
H2 -receptors = conditions: compared with other H2 antagonists; cited from earlier work
[3] = clinical use; cited from earlier work
[4] = 200-300 mg. tablets, multi daily doses; cited from earlier work

T1 sequence (P47747 whole entry): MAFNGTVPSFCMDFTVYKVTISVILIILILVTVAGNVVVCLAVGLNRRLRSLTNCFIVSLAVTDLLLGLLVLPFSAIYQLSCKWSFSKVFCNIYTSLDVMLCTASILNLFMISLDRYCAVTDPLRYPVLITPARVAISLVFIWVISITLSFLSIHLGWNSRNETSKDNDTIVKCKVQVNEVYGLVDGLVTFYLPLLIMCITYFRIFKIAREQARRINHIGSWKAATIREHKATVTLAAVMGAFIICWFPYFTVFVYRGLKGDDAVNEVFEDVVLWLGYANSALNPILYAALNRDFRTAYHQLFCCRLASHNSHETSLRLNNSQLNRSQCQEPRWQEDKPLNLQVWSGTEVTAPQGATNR

Histamine ED50 With 95% Confidence Limits (after test compound) (histamine H2 -receptor): 20.97 mg/L | Concentration-Response Curve Displacement Factor (histamine H2 -receptor): 52.77
SMILES: C#CCNC(=C[N+](=O)[O-])NCCSCc1ncccc1Cl [BL-6075, 1-Nitro-2-(2-propynlamino)-2-{2-[(3-chloro-2-pyridyl)-methylthio]ethylamino}ethylene]

Histamine ED50 With 95% Confidence Limits (after test compound) (histamine H2 -receptor): 57.92 mg/L | Activity Ratio Relative to Cimetidine (histamine H2 -receptor; ratio of displacement factors, cimetidine = 1.0, times more potent/active than cimetidine): 8.19 | Concentration-Response Curve Displacement Factor (histamine H2 -receptor): 206.86
SMILES: C#CCNC(=NCCSCc1ncccc1Cl)NC#N [BL-6083, N-Cyano-N'-(2-propyn-1-yl)-N"-{2-[(3-chloro-2-pyridyl)-methylthio]ethyl}guanidine]

SMILES: CNC(=S)NCCCCc1c[nH]cn1 [Burimamide]
inhibition of gastric secretion (gastric secretion [1]): inhibits gastric secretion | inhibition of gastric secretion (gastric secretion [2]): inhibits gastric secretion | clinical effectiveness as H2 -receptor antagonist (peptic ulcer disease; in vivo): first clinically effective H2 -receptor antagonist | antagonism of H2-receptors (histamine H2 -receptors): competitive antagonist

SMILES: CNC(=NC#N)NCCSCc1[nH]cnc1C [Cimetidine]
Histamine ED50 With 95% Confidence Limits (after test compound) (histamine H2 -receptor): 4.80 mg/L | H2 antagonist potency, comparison in words (H2 -receptors): as effective an H2 antagonist as metiamide | toxicity (agranulocytosis) [3]: without producing agranulocytosis | therapeutic effectiveness in peptic ulcer disease (peptic ulcer disease; clinical evaluation): effective therapeutic agent in the treatment of peptic ulcer disease | half-life [4]: relatively short

SMILES: NCCc1c[nH]cn1 [Histamine, histamine]
histamine concentration giving maximal response (histamine H2 -receptor; final molar bath concentration, increase in atrial rate): 30 µM | effect on contractile rate (histamine H2 -receptors; agonist): concentration-related increases in the contractile rate

SMILES: CNC(=S)NCCSCc1[nH]cnc1C [Metiamide]
oral activity (gastric secretion [2]; oral): orally active in man | H2 antagonist potency, comparison in words (H2 -receptors): more potent than burimamide | toxicity (agranulocytosis) [3]: toxicity (agranulocytosis)
